Structures can show the parent of a compound that is named as a salt. Where two headings read alike, the source gives them in different places.
Experiments:
iNOS (Type 2) = iNOS (Type 2) (Rattus norvegicus, UniProt Q06518); assay: biochemical; format: biochemical
E-cNOS (Type 3) = biological target: T1, E-cNOS (Type 3) (Bos taurus, UniProt P29473); assay: biochemical
T1 construct: the resulting supernatant was used as the crude enzyme sample of E-cNOS; endogenous in cells; host or cells: CPAE (cow pulmonary arterial endothelium cells), 1% Triton X-100 extract, 100,000 x g supernatant
T1 sequence (P29473 2-1205): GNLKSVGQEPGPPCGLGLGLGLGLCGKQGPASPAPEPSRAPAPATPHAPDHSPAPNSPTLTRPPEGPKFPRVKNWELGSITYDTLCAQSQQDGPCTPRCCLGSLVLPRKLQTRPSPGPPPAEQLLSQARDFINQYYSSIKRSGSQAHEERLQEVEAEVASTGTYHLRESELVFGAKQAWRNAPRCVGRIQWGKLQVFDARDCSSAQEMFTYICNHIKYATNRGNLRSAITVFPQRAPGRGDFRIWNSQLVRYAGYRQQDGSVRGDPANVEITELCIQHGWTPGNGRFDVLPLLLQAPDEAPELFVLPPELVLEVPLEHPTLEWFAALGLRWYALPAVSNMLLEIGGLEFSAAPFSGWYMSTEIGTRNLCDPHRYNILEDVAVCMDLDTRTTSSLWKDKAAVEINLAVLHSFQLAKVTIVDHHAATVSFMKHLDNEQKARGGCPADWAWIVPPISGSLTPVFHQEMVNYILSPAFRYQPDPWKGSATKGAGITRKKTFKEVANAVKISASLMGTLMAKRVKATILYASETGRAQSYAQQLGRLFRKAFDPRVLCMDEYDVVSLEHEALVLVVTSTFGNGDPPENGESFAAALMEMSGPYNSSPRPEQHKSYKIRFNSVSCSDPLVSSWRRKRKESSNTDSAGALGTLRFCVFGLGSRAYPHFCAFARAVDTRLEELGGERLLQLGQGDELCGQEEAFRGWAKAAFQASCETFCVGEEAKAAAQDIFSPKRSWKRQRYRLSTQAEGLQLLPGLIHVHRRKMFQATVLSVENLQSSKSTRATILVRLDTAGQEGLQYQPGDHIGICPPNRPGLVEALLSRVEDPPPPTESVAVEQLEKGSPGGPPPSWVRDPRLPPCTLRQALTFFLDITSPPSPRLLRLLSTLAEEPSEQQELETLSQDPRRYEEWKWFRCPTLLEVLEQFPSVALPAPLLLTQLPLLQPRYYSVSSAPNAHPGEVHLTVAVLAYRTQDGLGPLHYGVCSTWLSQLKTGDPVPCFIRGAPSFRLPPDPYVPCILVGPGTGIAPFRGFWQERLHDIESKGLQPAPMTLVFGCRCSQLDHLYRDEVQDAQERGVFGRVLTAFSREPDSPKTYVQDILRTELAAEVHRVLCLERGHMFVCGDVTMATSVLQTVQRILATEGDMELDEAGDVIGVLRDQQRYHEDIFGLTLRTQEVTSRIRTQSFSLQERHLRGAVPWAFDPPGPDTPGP
Method: The crude enzyme sample of E-cNOS was prepared by the following procedure. A cow pulmonary arterial endothielium cell (CPAE) was cultured in a MEM medium containing 20% FBS. […] A suitable amount of Ca- and Mg-free phosphate buffer (pH 7.4) was added to the precipitating cells and they were centrifuged at 1,000 rpm for 10 min. The same step was repeated to wash the cells which, upon addition of 50 mM Tris-HCl (pH 7.4) containing 1% Triton X-100 and 1 mM DTT, were left to stand in ice for 1 h. Subsequently, the mixture was homogenized for 3 min and kept in ice for 30 min with occasional stirring. Finally, the mixture was centrifuged at 100,000×g for 60 min and the resulting supernatant was used as the crude enzyme sample of E-cNOS.
The reaction was started by addition of L-[^3H]arginine and following incubation at 37° C. for 10 min, the reaction was terminated by addition of 2 ml of 50 mM Tris-HCl (pH 5.5) containing 1 mM EDTA and placing the mixture on ice. The reaction solution was passed through a cation-exchange resin column (Dowex AG50WX-8, Na^+ form, 3.2 ml) to separate the reaction product L-[^3H]citrulline from the unreacted residual substrate L-[^3H]arginine. The eluate was combined with another eluate resulting from the passage of a given amount of distilled water through the column and put into a minivial for recovery of L-[^3H]citrulline. Thereafter, a scintillation fluid was added and the contained radioactivity was measured with a liquid scintillation counter to determine the amount of L-[^3H]citrulline.
The activity of N-cNOS or E-cNOS was determined by subtracting the activity as detected in the absence of CaCl2 and calmodulin from the activity as detected in the presence of CaCl2 and calmodulin. […] The protein concentration of each crude enzyme sample was determined with a micro-assay kit of Biorad Co. Each experiment was conducted in a duplicate.

[1] = test system: rat model of focal cerebral ischemia (permanent MCA occlusion); assay: Brain edema (brain water content, dry-wet method) after 48-h occlusion of the left middle cerebral artery; format: in vivo; conditions: 48 hours after MCA occlusion
Method: An experiment was conducted to evaluate the effectiveness of a compound within the scope of the invention using a rat model of focal cerebral ischemia. Such models were prepared by occluding the left middle cerebral artery (MCA) in accordance with the method already reported by the present inventors (Nagafuji et al., Neurosci. Lett. 147, 159-162, 1992; Nagafuji et al., in Brain Edema IX (Ito et al., eds.) 60, pp. 285-288, 1994, Springer-Verlag; Nagafuji et al., Neuroreport 6, 1541-1545, 1995). […]
The water content in the brain which was an index of brain edema formation was measured by the dry-wet method (Nagafuji et al., Neurosci. Lett. 147, 159-162, 1992) in the following manner. Forty-eight hours after the MCA occlusion, the rats were decapitated and both the right and left cerebral hemispheres were extracted from each animal within 60 seconds; the wet weight of the brain tissue of each hemisphere was measured with a chemical balance within 90 seconds. Thereafter, the hemispheres were dried in an oven at 105° C. for 3 days and their dry weights were measured. The water content in the brain was determined by the following forumula: (wet weight−dry weight)/(wet weight)×100 (%). […]

[2] = test system: rat model of focal cerebral ischemia (temporary MCA occlusion); assay: Brain infarct volume (TTC staining) after 3-h MCA occlusion and 24-h reperfusion; format: in vivo
[3] = test system: focal cerebral ischemia in rats; conditions: administered after 3 hours of ischemia; Zhang et al. 1995; cited from earlier work
[4] = test system: rat model of focal cerebral ischemia; conditions: Nagafuji et al. 1992; cited from earlier work
[5] = test system: gerbil model of forebrain ischemia; conditions: Nagafuji et al. 1993; cited from earlier work
[6] = mean of one to four independent experiments, crude enzyme, 100 nM L-[3H]arginine, without CaCl2 and calmodulin, read-out: IC50 value, iNOS (Type 2)
[7] = mean of one to four independent experiments, crude enzyme, 100 nM L-[3H]arginine, read-out: IC50 value, E-cNOS (Type 3)
[8] = conclusion from Tables 49, 50 and 51

Sequence of iNOS (Type 2) (Q06518 whole entry, looked up): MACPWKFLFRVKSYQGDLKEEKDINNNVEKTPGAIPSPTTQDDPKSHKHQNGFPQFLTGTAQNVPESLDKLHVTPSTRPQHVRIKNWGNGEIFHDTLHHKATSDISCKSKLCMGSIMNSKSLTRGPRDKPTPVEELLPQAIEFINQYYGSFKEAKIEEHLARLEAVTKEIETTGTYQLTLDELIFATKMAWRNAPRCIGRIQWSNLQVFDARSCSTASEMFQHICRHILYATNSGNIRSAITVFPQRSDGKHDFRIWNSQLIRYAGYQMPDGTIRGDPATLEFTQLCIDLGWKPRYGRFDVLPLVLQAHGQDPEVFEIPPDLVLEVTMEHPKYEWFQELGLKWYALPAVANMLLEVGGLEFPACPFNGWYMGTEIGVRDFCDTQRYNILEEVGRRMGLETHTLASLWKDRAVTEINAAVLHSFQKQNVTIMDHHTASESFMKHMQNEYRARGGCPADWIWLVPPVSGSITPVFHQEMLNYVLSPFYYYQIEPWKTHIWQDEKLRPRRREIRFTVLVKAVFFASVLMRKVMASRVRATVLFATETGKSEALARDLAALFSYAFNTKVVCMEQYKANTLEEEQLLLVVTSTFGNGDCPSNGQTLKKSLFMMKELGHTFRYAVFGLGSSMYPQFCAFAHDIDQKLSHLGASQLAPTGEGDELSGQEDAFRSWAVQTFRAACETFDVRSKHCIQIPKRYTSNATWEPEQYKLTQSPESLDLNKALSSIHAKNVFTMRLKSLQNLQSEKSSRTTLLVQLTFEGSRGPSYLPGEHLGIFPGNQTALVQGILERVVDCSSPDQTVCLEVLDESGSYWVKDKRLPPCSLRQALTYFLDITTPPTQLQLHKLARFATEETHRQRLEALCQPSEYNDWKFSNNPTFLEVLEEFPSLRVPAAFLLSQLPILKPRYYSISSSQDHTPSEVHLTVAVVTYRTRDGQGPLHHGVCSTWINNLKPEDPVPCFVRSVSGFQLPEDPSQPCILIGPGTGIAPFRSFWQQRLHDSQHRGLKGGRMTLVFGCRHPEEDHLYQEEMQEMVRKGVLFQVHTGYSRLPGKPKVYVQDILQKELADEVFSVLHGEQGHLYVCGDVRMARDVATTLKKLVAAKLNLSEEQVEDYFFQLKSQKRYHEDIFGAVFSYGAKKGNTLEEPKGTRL

## CSC(=N)Nc1cccc(C(C)(C)N)c1.Cl.Cl [Example 5, N-(1-methyl-1-(3-(S-methylisothioureido)phenyl)ethyl)amine dihydrochloride]
iNOS (Type 2); index of selectivity
  Ratio of IC50 values E-cNOS/iNOS: 1.0
iNOS (Type 2); [6]
  IC50: 0.449 µM
E-cNOS (Type 3); [7]
  IC50: 0.429 µM

## CCSC(=N)Nc1cccc(CN)c1C.Cl.Cl [Example 131, N-(3-(S-ethylisothioureido)-2-methylphenylmethyl)amine dihydrochloride]
iNOS (Type 2)
  Ratio of IC50 values E-cNOS/iNOS: 6.2
  selectivity for iNOS compared to E-cNOS, compared with the existing NOS inhibitors (L-NIO): more selective inhibitory effect on iNOS than L-NIO
iNOS (Type 2); [8]
  iNOS inhibitory potency compared with the existing NOS inhibitors (L-MIN): more potent in inhibiting iNOS than L-MIN
iNOS (Type 2); [6]
  IC50: 0.0782 µM
E-cNOS (Type 3); [7]
  IC50: 0.481 µM

## CSC(=N)Nc1cccc(C(C)N)c1.Cl.Cl (centres unmarked) [Example 12, N-(1-(3-(S-methylisothioureido)phenyl)ethyl)amine dihydrochloride]
iNOS (Type 2)
  Ratio of IC50 values E-cNOS/iNOS: 2.3
iNOS (Type 2); [8]
  iNOS inhibitory potency compared with the existing NOS inhibitors (L-MIN): more potent in inhibiting iNOS than L-MIN
iNOS (Type 2); [6]
  IC50: 0.239 µM
E-cNOS (Type 3); [7]
  IC50: 0.538 µM

## CCSC(=N)Nc1ccc(NC)c(CN)c1.Cl.Cl.Cl [Example 452, N-(5-(S-ethylisothioureido)-2-methylaminophenylmethyl)amine trihydrochloride]
iNOS (Type 2)
  Ratio of IC50 values E-cNOS/iNOS: 0.5
iNOS (Type 2); [6]
  IC50: 6.96 µM
E-cNOS (Type 3); [7]
  IC50: 3.63 µM

## CCSC(=N)Nc1ccc(OC)c(CN)c1 [Example 122, N-(5-(S-ethylisothioureido)-2-methoxyphenylmethyl)amine dihydrochloride]
iNOS (Type 2); [6]
  IC50: 24.6 µM
E-cNOS (Type 3); [7]
  IC50: 3.53 µM

## CCSC(=N)Nc1cccc(C(C)(C)N)c1.Cl.Cl [Example 96, N-(1-methyl-1-(3-(S-ethylisothioureido)phenyl)ethyl)amine dihydrochloride]
[1]; bolus 0.12-3.6 μg/kg then infusion 0.01-0.3 μg/kg/min
  increase in the percentage of the water content (brain edema), dose dependence: reduced in a dose-dependent manner
[1]; sustained infusion 0.3 μg/kg/min following intravenous bolus 3.6 μg/kg, p<0.01, control group about 103.8%
  percentage of the water content in the stroke hemisphere to the contralateral hemisphere: about 102.1%
[2]; 3-h MCA occlusion and 24-h reperfusion, bolus 0.12-3.6 μg/kg then infusion 0.01-0.3 μg/kg/min
  infarction, dose dependence: ameliorated in a dose-dependent manner
[2]; rat, in vivo, iv
  decrease of infarct volume: about 79.7%
iNOS (Type 2); [8]
  iNOS inhibitory potency compared with the existing NOS inhibitors (L-MIN): more potent in inhibiting iNOS than L-MIN
  selectivity for iNOS compared to E-cNOS, compared with the existing NOS inhibitors (L-NIO): more selective inhibitory effect on iNOS than L-NIO
iNOS (Type 2); index of selectivity
  Ratio of IC50 values E-cNOS/iNOS: 6.9
iNOS (Type 2); [6]
  IC50: 0.0286 µM
E-cNOS (Type 3); [7]
  IC50: 0.198 µM

## CC(=N)NCCC[C@H](N)C(=O)O [L-NIO, NG-iminoethyl-L-ornithine, reference compound]
iNOS (Type 2); mean of one to four independent experiments, LPS-treated rat lung crude enzyme, read-out: IC50 value, iNOS (Type 2)
  IC50: 0.458 µM
E-cNOS (Type 3); mean of one to four independent experiments, CPAE cell crude enzyme, read-out: IC50 value, E-cNOS (Type 3)
  IC50: 1.23 µM

## CCSC(=N)Nc1ccc(CCN)cc1.Cl.Cl [Example 104, N-(4-(S-ethylisothioureido)phenylethyl)amine dihydrochloride]
iNOS (Type 2); [8]
  iNOS inhibitory potency compared with the existing NOS inhibitors (L-MIN): more potent in inhibiting iNOS than L-MIN
iNOS (Type 2); index of selectivity
  Ratio of IC50 values E-cNOS/iNOS: 1.4
iNOS (Type 2); [6]
  IC50: 0.0865 µM
E-cNOS (Type 3); [7]
  IC50: 0.118 µM

## CCN=C(N)Nc1ccc(N(C)C)c(CN)c1.Cl.Cl.Cl [Example 267, N-(2-dimethylamino-5-(N′-ethylguanidino)phenylmethyl)amine trihydrochloride]
iNOS (Type 2); [8]
  selectivity for iNOS compared to E-cNOS, compared with the existing NOS inhibitors (L-NIO): more selective inhibitory effect on iNOS than L-NIO
iNOS (Type 2); index of selectivity
  Ratio of IC50 values E-cNOS/iNOS: 10.5
iNOS (Type 2); [6]
  IC50: 4.79 µM
E-cNOS (Type 3); [7]
  IC50: 50.1 µM

## N/N=C(\N)NCCC[C@H](N)C(=O)O [L-AA, N^G-amino-L-arginine, reference compound]
iNOS (Type 2)
  IC50: 1.28 µM
E-cNOS (Type 3)
  IC50: 0.167 µM

## CCC(N)c1cccc(NC(=N)SC)c1 (centres unmarked) [Example 19, N-(1-(3-(S-methylisothioureido)phenyl)propyl)amine dihydrochloride]
iNOS (Type 2); [6]
  IC50: 2.4 µM

## CCN=C(N)Nc1cccc(CN)c1Cl.Cl.Cl [Example 538, N-(2-chloro-3-(N′-ethylguanidino)phenylmethyl)amine dihydrochloride]
iNOS (Type 2)
  Ratio of IC50 values E-cNOS/iNOS: 8.3
  selectivity for iNOS compared to E-cNOS, compared with the existing NOS inhibitors (L-NIO): more selective inhibitory effect on iNOS than L-NIO
iNOS (Type 2); [6]
  IC50: 0.306 µM
E-cNOS (Type 3); [7]
  IC50: 2.54 µM

## CC(C)(N)c1cccc(NC(N)=N[N+](=O)[O-])c1.Cl [Example 7, N-(1-methyl-1-(3-(N′-nitroguanidino)phenyl)ethyl)amine hydrochloride]
iNOS (Type 2)
  Ratio of IC50 values E-cNOS/iNOS: 0.02
iNOS (Type 2); [6]
  IC50: 2.12 µM
E-cNOS (Type 3); [7]
  IC50: 0.0424 µM

## CCSC(=N)Nc1ccc(OC)c(C(C)(C)N)c1 [Example 350, N-(1-(5-(S-ethylisothioureido)-2-methoxyphenyl)-1-methylethyl)amine]
iNOS (Type 2); index of selectivity
  Ratio of IC50 values E-cNOS/iNOS: 0.3
iNOS (Type 2); [6]
  IC50: 58.4 µM
E-cNOS (Type 3); [7]
  IC50: 15.8 µM

## CCSC(N)=NCCC[C@H](N)C(=O)O [L-EIN, S-ethyl-L-thiocitrulline, reference compound]
iNOS (Type 2); [6]
  IC50: 6.76 µM
E-cNOS (Type 3); [7]
  IC50: 0.732 µM

## CSC(=N)Nc1cccc(CN)c1.Cl.Cl [Example 26, N-(3-(S-methylisothioureido)phenylmethyl)amine dihydrochloride]
iNOS (Type 2); index of selectivity
  Ratio of IC50 values E-cNOS/iNOS: 0.3
iNOS (Type 2); [6]
  IC50: 1.35 µM
E-cNOS (Type 3); [7]
  IC50: 0.431 µM

## COC(=O)[C@@H](N)CCCNC(=N)N[N+](=O)[O-] [L-NAME, N^G-nitro-L-arginine methyl ester, reference compound]
[3]
  infarct volume: decreased significantly
E-cNOS (Type 3); [7]
  IC50: 0.923 µM

## CCSC(=N)Nc1ccc(N(C)C)c(CN)c1.Cl.Cl.Cl [Example 270, N-(2-dimethylamino-5-(S-ethylisothioureido)phenylmethyl)amine trihydrochloride]
iNOS (Type 2); index of selectivity
  Ratio of IC50 values E-cNOS/iNOS: 0.8
iNOS (Type 2); [6]
  IC50: 4.53 µM
E-cNOS (Type 3); [7]
  IC50: 3.59 µM

## N=C(NCCC[C@H](N)C(=O)O)N[N+](=O)[O-] [L-NNA, N^G-nitro-L-arginine]
[4]
  effects against brain edema and infarction: ameliorative effects
[5]
  effects against neuronal cell death: ameliorative effects

## CCSC(=N)Nc1ccc(OCc2ccccc2)c(CN)c1.Cl.Cl [Example 337, N-(2-benzyloxy-5-(S-ethylisothioureido)phenylmethyl)amine dihydrochloride]
iNOS (Type 2); index of selectivity
  Ratio of IC50 values E-cNOS/iNOS: 0.3
E-cNOS (Type 3); [7]
  IC50: 5.2 µM

## CC(N)c1cccc(NC(N)=N[N+](=O)[O-])c1 (centres unmarked) [Example 14, N-(1-(3-(N′-nitroguanidino)phenyl)ethyl)amine hydrochloride]
iNOS (Type 2); [6]
  IC50: 3.68 µM

## CSC(=N)Nc1cccc(CCN)c1 [Example 60, N-(3-(S-methylisothioureido)phenylethyl)amine dihydrochloride]
iNOS (Type 2); [6]
  IC50: 6.75 µM

## CCOc1ccc(NC(=N)SCC)cc1CN.Cl.Cl [Example 324, N-(2-ethoxy-5-(S-ethylisothioureido)phenylmethyl) amine dihydrochloride]
iNOS (Type 2); index of selectivity
  Ratio of IC50 values E-cNOS/iNOS: 0.3
iNOS (Type 2); [6]
  IC50: 8.73 µM
E-cNOS (Type 3); [7]
  IC50: 2.31 µM

## CSC(=N)Nc1ccc(CCN)cc1.Cl.Cl [Example 52, N-(4-(S-methylisothioureido)phenylethyl)amine dihydrochloride]
iNOS (Type 2); index of selectivity
  Ratio of IC50 values E-cNOS/iNOS: 0.2
iNOS (Type 2); [6]
  IC50: 2.76 µM
E-cNOS (Type 3); [7]
  IC50: 0.483 µM

Reference: patent US6534546B1 (Chugai Seiyaku Kabushiki Kaisha, priority 1994, dated 2003)
